In patent US5985926A, “Method for inhibiting intracellular viral replication” (Cell Therapeutics, Inc., priority 1997, dated 1999):
Where two headings read alike, the source gives them in different places.

Legend:
[1] = tested on: HIV-LTR promoter (tat transactivation) in 293-EBNA cells; assay: AP reporter gene expression from HIV-LTR promoter with tat expression vector, 293-EBNA cells; assay type: cell-based, HIV; human cells; conditions: 293-EBNA cells, HIV promoter, in words
How it was run: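 293-EBNA cells were transiently co-transfected with an HIV-LTR-driven secreted placental alkaline phosphatase reporter and a tat(1–72) expression plasmid. At 24 h, the medium was switched to serum-free AIM V before compounds were added at various concentrations. Secreted AP activity was read colorimetrically at 405 nm 19–24 h later.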

[2] = tested on: HIV-1 in U1 cells (IL-6 mediated expression); assay: IL-6-mediated HIV-1 p24 antigen expression in chronically infected U1 cells; assay type: cell-based, HIV-1; human cells
Protocol: FIG. 17 illustrates a dose response curves of CT2576 on constitutive, TNF-α, and IL-6-mediated expression of HIV-1 in a chronically infected U1 cell line (left Y-axis) and of CT3537 on HIV expression in PBL acutely infected with the JR-CSF primary isolate (right Y-axis). U1 cells were incubated for four days after the addition of CT2576 with or without TNF-α (20 pg/ml) or IL-6 (1 ng/ml). PBL were inoculated with HIV at 10 ng virus/10^6 cells/well and incubated with various concentrations of CT3537 for 7 days. Each data point represents the average expression levels of HIV-1 p24-antigen in the cell supernatants measured by ELISA from triplicate samples with error bar indicating the SD.
Stable cell lines 293tar, 293tat and 293tat2 were generated by transfections using conditions described in (Tate et al., FASEB J. 4:227-231, 1990) with the plasmid pHIV.AP alone or along with either pHIV.tat or pSV2tat72, respectively. The assay of HIV-1 p24 antigen expression in the chronically HIV-1-infected promonocytic line U1 after 4 days and in acutely infected peripheral blood lymphocytes (PBL) after 7 days were described (Peterson et al., J. Clin. Invest. 89:574-580, 1992, and Brighty et al., Proc Natl. Acad. Sci. USA 88:7802-7805, 1991).
This example illustrates that CT2576 inhibited both constitutive and cytokine-induced HIV expression in a chronically-infected U1 cell line. A chronically HIV-1 infected human promonocyte cell line, U1 (Poli et al., J. Exp. Med. 172:151-158, 1990), was used as a model to see if the inhibitory effect of CT2576 on HIV-LTR driven reporter gene expression could be extended to block HIV replication per se in infected cells. TNF-α and IL-6 have been reported to upregulate the expression of HIV-1 in U1 cells (Poli et al., Proc Natl. Acad. Sci. USA 91:108-112, 1994). U1 cells were plated onto 24-well microtiter plates to study the dose-response effect of CT2576 on the constitutive (10^4 cells/well), TNF-α or IL-6 mediated (2×10^3 cells/well) expression of HIV-1. […]

Structure (SMILES): CCCCCCCCNCC(O)CCCCCCCCCN1C(=O)CCN(C)C1=O (stereo not shown) [CT1829, 3-(11-octylamino-10-hydroxyundecyl)-1-methyldihydrouracil]
- inhibition of AP expression (HIV-LTR promoter) [1]: inhibit HIV promoter driven expression

Structure (SMILES): CCCCCCCCNCC(O)CCCCCCCCCn1c(=O)c2c(ncn2C)n(C)c1=O (stereo not shown) [CT2576, 1-(11-octylamino-10-hydroxyundecyl)-3,7-dimethylxanthine]
- IC50 ([2]; Human immunodeficiency virus 1, 96 h, read-out: IC50, IL-6 mediated HIV expression, U1 cells, 4 days): ~1 µM
- IC50 ([2]; U1 cells, 4 days, read-out: IC50, IL-6 mediated HIV expression): < 1 µM
- inhibition of IL-6 mediated HIV-1 expression (p24) ([2]; U1 cells, in words): inhibited
